Measured values taken from patent publication US11053230B2, “3-hydroxy-imidazolidin-4-one compounds as inhibitors of indoleamine 2,3-dioxygenase” (Netherlands Translational Research Center B.V., priority 2017, dated 2021).
Several values for one entry are separate records, joined by “and”; a condition that tells them apart may be missing. Equal entries are not always repeated.

Biological target: T1, IDO1 (Homo sapiens, UniProt P14902)
T1 construct: Recombinant full-length IDO1 (Seegers, N., et al.) and all other assay components were diluted in IDO1 reaction buffer; made in house
Assay: Biochemical IDO1 assay (NFK GreenScreen)
Settings: for IC50: NFK GreenScreen, 25 nM IDO1, 100 μM L-tryptophan, read-out: IC50, inhibitory potency on IDO1; for relative activity of the separated isomers: stated in the synthesis examples, assay not named
Experimental: Inhibition of IDO1 activity can be measured by determining the enzymatic conversion of L-tryptophan into N-formylkynurenine (NFK) in a reaction mixture containing IDO1 and test compound. The formation of NFK can be detected directly by, for instance, high-performance liquid chromatography (HPLC) methods, or by intrinsic fluorescence.
Compounds were serially diluted in dimethylsulfoxide (DMSO) and finally in IDO1 reaction buffer, consisting of 50 mM NaH2PO4, pH7.0, supplemented with 0.05% Tween-20 (cat. No. P7949; Sigma Aldrich) and 1% glycerol. Recombinant full-length IDO1 (Seegers, N., et al.) and all other assay components were diluted in IDO1 reaction buffer. […] Subsequently, 10 μl of 0.4 mM of the substrate L-tryptophan was added, i.e., the final concentration of L-tryptophan was 100 μM. The DMSO concentration in the assay was 0.3%. […] Incubation was continued for 60 min at room temperature. Then, 10 μl of NFK Green™ (NTRC, Oss, The Netherlands) was added, the plate was sealed, and the reaction was developed for 3 hours at 37° C. To determine the production of N-formyl kynurenine (NFK), the seal was removed and fluorescence was read on an EnVision multimode reader (Perkin Elmer, Waltham, Mass., USA). IC50 were calculated using XLfit™ software (ID Business Solutions, Ltd., Surrey, U.K.).

T1 sequence (P14902 whole entry): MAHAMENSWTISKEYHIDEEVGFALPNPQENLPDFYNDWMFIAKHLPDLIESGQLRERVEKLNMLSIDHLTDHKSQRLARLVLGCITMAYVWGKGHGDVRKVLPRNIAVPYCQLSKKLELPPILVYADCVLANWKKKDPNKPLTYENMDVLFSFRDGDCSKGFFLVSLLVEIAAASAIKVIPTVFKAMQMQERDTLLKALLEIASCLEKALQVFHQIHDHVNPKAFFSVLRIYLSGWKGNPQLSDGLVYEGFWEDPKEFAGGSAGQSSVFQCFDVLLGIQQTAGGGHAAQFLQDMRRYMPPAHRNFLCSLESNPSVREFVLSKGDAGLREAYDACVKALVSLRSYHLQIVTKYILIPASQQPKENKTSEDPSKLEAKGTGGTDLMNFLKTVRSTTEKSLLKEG

IC50	relative activity of the separated isomers	Compound
≤ 1000 nM		Cc1ccc(F)c(C(=O)N2CC(=O)N(O)C2c2csc(Br)c2)c1F (centres unmarked) [Example 102, 2-(5-Bromo-3-thienyl)-1-(2,6-difluoro-3-methyl-benzoyl)-3-hydroxy-imidazolidin-4-one]
≤ 1000 nM		O=C1CN(C(=O)c2c(F)cccc2F)C(c2cc(Br)c(Cl)s2)N1O (centres unmarked) [Example 115, 2-(4-Bromo-5-chloro-2-thienyl)-1-(2,6-difluorobenzoyl)-3-hydroxy-imidazolidin-4-one]
	less active isomer	C[C@@H](c1ccccc1)N1CC(=O)N(O)C1c1csc(Br)c1 (single isomer, unassigned) [Example 121a]
	most active isomer	O=C1CN(C(=O)c2c(F)cccc2F)C(c2cc(Br)c(F)s2)N1O (single isomer, unassigned) [Example 110a, 2-(4-Bromo-5-fluoro-2-thienyl)-1-(2,6-difluorobenzoyl)-3-hydroxy-imidazolidin-4-one]
≤ 1000 nM		Nc1ccc(F)c(C(=O)N2CC(=O)N(O)C2c2cc(Br)cs2)c1F (centres unmarked) [Example 105, 1-(3-Amino-2,6-difluoro-benzoyl)-2-(4-bromo-2-thienyl)-3-hydroxy-imidazolidin-4-one]
≤ 1000 nM		O=C1CN(C(=O)c2c(F)ccc(-c3ccccc3)c2F)C(c2csc(Br)c2)N1O (centres unmarked) [Example 123, 2-(5-Bromo-3-thienyl)-1-(2,6-difluoro-3-phenyl-benzoyl)-3-hydroxy-imidazolidin-4-one]
≤ 1000 nM		O=C1CN(C(=O)c2c(F)ccc(-c3cccc4ccccc34)c2F)C(c2cc(Br)cs2)N1O (centres unmarked) [Example 134, 2-(4-Bromo-2-thienyl)-1-[2,6-difluoro-3-(1-naphthyl)benzoyl]-3-hydroxy-imidazolidin-4-one]
≤ 1000 nM		O=C1CN(C(=O)c2c(F)ccc([N+](=O)[O-])c2F)C(c2cc(Br)cs2)N1O (centres unmarked) [Example 106, 2-(4-Bromo-2-thienyl)-1-(2,6-difluoro-3-nitro-benzoyl)-3-hydroxy-imidazolidin-4-one]
≤ 1000 nM		Cc1cc(C2N(O)C(=O)CN2C(=O)c2c(F)cccc2F)sc1Cl (centres unmarked) [Example 112, 2-(5-Chloro-4-methyl-2-thienyl)-1-(2,6-difluorobenzoyl)-3-hydroxy-imidazolidin-4-one]
≤ 1000 nM		C=Cc1ccc(F)c(C(=O)N2CC(=O)N(O)C2c2cc(Br)cs2)c1F (centres unmarked) [Example 128, 2-(4-Bromo-2-thienyl)-1-(2,6-difluoro-3-vinyl-benzoyl)-3-hydroxy-imidazolidin-4-one]
≤ 1000 nM		[2H]c1sc(C2N(O)C(=O)CN2C(=O)c2c(F)cccc2F)cc1Br (centres unmarked) [Example 111, 2-(4-Bromo-5-deuterio-2-thienyl)-1-(2,6-difluorobenzoyl)-3-hydroxy-imidazolidin-4-one]
≤ 1000 nM		Cn1cc(-c2ccc(F)c(C(=O)N3CC(=O)N(O)C3c3csc(Br)c3)c2F)cn1 (centres unmarked) [Example 124, 2-(5-Bromo-3-thienyl)-1-[2,6-difluoro-3-(1-methylpyrazol-4-yl)benzoyl]-3-hydroxy-imidazolidin-4-one]
≤ 1000 nM		O=C1CN(C(=O)c2c(F)cccc2F)C(c2cc(I)c(F)s2)N1O (centres unmarked) [Example 116, 1-(2,6-Difluorobenzoyl)-2-(5-fluoro-4-iodo-2-thienyl)-3-hydroxy-imidazolidin-4-one]

More lines, now with the values behind:

Compound	IC50	relative activity of the separated isomers
O=C1CN(C(=O)c2cccnc2Cl)C(c2cc(Br)cs2)N1O (centres unmarked) [Example 66, 2-(4-Bromo-2-thienyl)-1-(2-chloropyridine-3-carbonyl)-3-hydroxy-imidazolidin-4-one]	≤ 1000 nM	
CSc1ccc(C2N(O)C(=O)CN2C(=O)c2c(F)cccc2F)s1 (centres unmarked) [Example 14, 1-(2,6-Difluorobenzoyl)-3-hydroxy-2-(5-methylsulfanyl-2-thienyl)imidazolidin-4-one]	≤ 5000 nM and 1000 to 5000 nM	
O=C1CN(C(=O)c2ccccc2)C(c2cc(Br)cs2)N1O (centres unmarked) [Example 12, 1-Benzoyl-2-(4-bromo-2-thienyl)-3-hydroxy-imidazolidin-4-one]	≤ 5000 nM and 1000 to 5000 nM	
O=C1CN(C(=O)c2c(F)cc(CCC3CCCCC3)cc2F)C(c2cc(Br)cs2)N1O (centres unmarked) [Example 92, 2-(4-Bromo-2-thienyl)-1-[4-(2-cyclohexylethyl)-2,6-difluoro-benzoyl]-3-hydroxy-imidazolidin-4-one]	≤ 5000 nM and 1000 to 5000 nM	
NS(=O)(=O)NCCCc1cc(F)c(C(=O)N2CC(=O)N(O)C2c2cc(Br)cs2)c(F)c1 (centres unmarked) [Example 93, 2-(4-Bromo-2-thienyl)-1-[2,6-difluoro-4-[3-(sulfamoylamino)propyl]benzoyl]-3-hydroxy-4-oxo-imidazolidine]	≤ 1000 nM	
C#Cc1cc(F)c(C(=O)N2CC(=O)N(O)C2c2cc(Br)cs2)c(F)c1 (centres unmarked) [Example 38, 2-(4-Bromo-2-thienyl)-1-(4-ethynyl-2,6-difluoro-benzoyl)-3-hydroxy-imidazolidin-4-one]	≤ 1000 nM	
O=C1CN(C(=O)c2c(F)cc(C#CC3CC3)cc2F)C(c2cc(Br)cs2)N1O (single isomer, unassigned) [Example 47b, 2-(4-Bromo-2-thienyl)-1-[4-(2-cyclopropylethynyl)-2,6-difluoro-benzoyl]-3-hydroxy-imidazolidin-4-one]	≤ 1000 nM	most active isomer
O=C1CN(C(=O)c2c(F)cc(C#CC3CCCCC3)cc2F)C(c2cc(Br)cs2)N1O (centres unmarked) [Example 78, 2-(4-Bromo-2-thienyl)-1-[4-(2-cyclohexylethynyl)-2,6-difluoro-benzoyl]-3-hydroxy-imidazolidin-4-one]	≤ 1000 nM	
Cc1ccc(F)c(C(=O)N2CC(=O)N(O)C2c2cc(Br)cs2)c1F (centres unmarked) [Example 77, 2-(4-Bromo-2-thienyl)-1-(2,6-difluoro-3-methyl-benzoyl)-3-hydroxy-imidazolidin-4-one]	≤ 1000 nM	
O=C1CN(Cc2c(F)cccc2F)C(c2cc(Br)cs2)N1O (single isomer, unassigned) [Example 45b, 2-(4-Bromo-2-thienyl)-1-[(2,6-difluorophenyl)methyl]-3-hydroxy-imidazolidin-4-one]	≤ 1000 nM	most active isomer
O=C1CN(C(=O)c2ccc(Cl)cc2Cl)C(c2cc(Br)cs2)N1O (centres unmarked) [Example 68, 2-(4-Bromo-2-thienyl)-1-(2,4-dichlorobenzoyl)-3-hydroxy-imidazolidin-4-one]	≤ 5000 nM and 1000 to 5000 nM	
CS(=O)(=O)c1ccc(-c2ccc(C(=O)N3CC(=O)N(O)C3c3cc(Br)cs3)cc2)cc1 (centres unmarked) [Example 71, 2-(4-Bromo-2-thienyl)-3-hydroxy-1-[4-(4-methylsulfonylphenyl)benzoyl]imidazolidin-4-one]	≤ 5000 nM and 1000 to 5000 nM	
O=C1CN(C(=O)c2c(F)cccc2F)C(c2csc(Br)c2)N1O (centres unmarked) [Example 28, 2-(5-Bromo-3-thienyl)-1-(2,6-difluorobenzoyl)-3-hydroxy-imidazolidin-4-one]	≤ 1000 nM	
O=C1CN(C(=O)c2c(F)cccc2F)C(c2csc([N+](=O)[O-])c2)N1O (centres unmarked) [Example 20, 1-(2,6-Difluorobenzoyl)-3-hydroxy-2-(5-nitro-3-thienyl)imidazolidin-4-one]	≤ 1000 nM	
O=C1CN(Cc2ccccc2F)C(c2csc(Br)c2)N1O (centres unmarked) [Example 42, 2-(5-Bromo-3-thienyl)-1-[(2-fluorophenyl)methyl]-3-hydroxy-imidazolidin-4-one]	≤ 1000 nM	
O=C1CN(C(=O)c2ccc(C(F)(F)F)cc2F)C(c2cc(Br)cs2)N1O (centres unmarked) [Example 64, 2-(4-Bromo-2-thienyl)-1-[2-fluoro-4-(trifluoromethyl)benzoyl]-3-hydroxy-imidazolidin-4-one]	≤ 5000 nM and 1000 to 5000 nM	
O=C1CN(C(=O)c2ccc(Cc3ccccc3)cc2)C(c2cc(Br)cs2)N1O (centres unmarked) [Example 53, 1-(4-Benzylbenzoyl)-2-(4-bromo-2-thienyl)-3-hydroxy-imidazolidin-4-one]	≤ 5000 nM and 1000 to 5000 nM	
O=C1CN(C(=O)c2c(F)cccc2C(F)(F)F)C(c2csc(Br)c2)N1O (centres unmarked) [Example 100, 2-(5-Bromo-3-thienyl)-1-[2-fluoro-6-(trifluoromethyl)benzoyl]-3-hydroxy-imidazolidin-4-one]	≤ 5000 nM and 1000 to 5000 nM	
O=C1CN(C(=O)c2c(F)cccc2Cl)C(c2cc(Br)cs2)N1O (centres unmarked) [Example 7, 2-(4-Bromo-2-thienyl)-1-(2-chloro-6-fluoro-benzoyl)-3-hydroxy-imidazolidin-4-one]	≤ 1000 nM	
CC(C)CCc1cc(F)c(C(=O)N2CC(=O)N(O)C2c2cc(Br)cs2)c(F)c1 (centres unmarked) [Example 95, 2-(4-Bromo-2-thienyl)-1-(2,6-difluoro-4-isopentyl-benzoyl)-3-hydroxy-imidazolidin-4-one]	≤ 5000 nM and 1000 to 5000 nM	
O=C1CN(C(=O)c2c(F)cccc2F)C(c2cc(I)cs2)N1O (centres unmarked) [Example 36, 1-(2,6-Difluorobenzoyl)-3-hydroxy-2-(4-iodo-2-thienyl)imidazolidin-4-one]	≤ 1000 nM	
O=C1CN(C(=O)c2c(F)cc(-c3ccccc3)cc2F)C(c2cc(Br)cs2)N1O (centres unmarked) [Example 85, 2-(4-Bromo-2-thienyl)-1-(2,6-difluoro-4-phenyl-benzoyl)-3-hydroxy-imidazolidin-4-one]	≤ 1000 nM	
COc1ccc(F)c(C(=O)N2CC(=O)N(O)C2c2cc(Br)cs2)c1F (centres unmarked) [Example 75, 2-(4-Bromo-2-thienyl)-1-(2,6-difluoro-3-methoxy-benzoyl)-3-hydroxy-imidazolidin-4-one]	≤ 1000 nM	
